Earlier results in patent US20140230256A1, “HAND HELD DEVICE” (The Gillette Company, priority 2013, published 2014).

Conditions: organism not stated

CCCCCCCCn1sc(Cl)c(Cl)c1=O [4,5-dichloro-2-n-octyl-4-isothiazolin-3-one]
MIC: about 50 ppm
